Literature values as cited in US6921495B2, “Environmentally compatible defrosting and antifreeze agents for aeroplanes” (Clariant GmbH, priority 2001, dated 2005).
Where two headings read alike, the source gives them in different places.

| Compound | LCO in Brachydanio rerio (Brachydanio rerio; Brachydanio rerio) [mg/L] | LD50 oral rat (rat; in vivo, po) [mg/kg] | LCO in Brachydanio rerio (Brachydanio rerio; in vivo) [mg/L] | LD50 oral rat (rat; oral) [mg/kg] |
| --- | --- | --- | --- | --- |
| c1ccc2[nH]nnc2c1 [benzotriazole] | 100 | 560 |  |  |
| Tolyltriazole |  |  | 42.2 | 675 |
